The record followed here is patent US20250214977A1, “STAT6 INHIBITORS AND USES THEREOF” (Kymera Therapeutics, Inc., priority 2024, published 2025).

A value given as a limit tells only on which side of the number the result lay.

This experiment deals with Phosphorylation of STAT6 in human PBMC (CD19+ B cells). Nature of the experiment: Phosphorylated STAT6 (pSTAT6) flow cytometry assay in human PBMC, IL-4 stimulated. The format is cell-based. The note with it: compound 1 hour, 1 ng/ml IL-4 for 15 minutes, read-out: STAT6 IL4 pSTAT6 assay in PBMC: Average IC50. As for the experimental part:
Example 2. Phosphorylated STAT6 (pSTAT6) Flow Cytometry Assay in Human PBMC
Phosphorylation of STAT6 in human PBMC was quantitatively measured using flow cytometry technology. Human PBMC were seeded in 96-well plates with a density of 0.3 to 0.5 million cells per well in 100 μl fresh media. Compounds were then added to the assay plates with a final top concentration of up to 30 μM in a 1:3 dilution series with total of 9 doses. The assay plates were incubated for 1 hour at 37° C. under 5% CO2. The cells were then stimulated with 1 ng/ml of IL-4 (R&D Systems, Cat #6507-IL) for 15 minutes, followed by fixation for 30 minutes at 4° C. Cells were spun down at 350 g for 5 minutes. The supernatant was removed and cells were washed once with FACS buffer. Cells were permeabilized with 90% MeOH/H2O for 30 minutes at 4° C., followed by one wash with FACS buffer. Non-specific binding were blocked with human Fc for 1 hour at 4 C, followed by one wash with FACS buffer. AF488 conjugated pSTAT6 antibody (BD Biosciences, Cat #612600, 1:100 dilution) and PE conjugated CD19 antibody (BD Biosciences, Cat #341103, 1:50 dilution) diluted in 100 μl FACS buffer was added to each well with overnight incubation at 4° C. Cells were then washed once with FACS buffer and resuspended in 200 μl of FACS buffer for flow cytometry to quantify pSTAT6 in CD19+ B cells. The data was analyzed by GraphPad Prism and the dose dependent pSTAT6 inhibition was fit using the four-parameter inhibitor vs. response nonlinear regression.
On the technique in general: A flow cytometer gives signals particle by particle.

The term IC50 denotes the concentration that gives 50% inhibition. In the case of `CN(C)C(=O)c1nc2ccc(C3=CCCN(C(=O)C4Cc5ccccc5CN4C=O)C3)cc2[nH]1` (centres unmarked) [Example I-198], the IC50 is greater than 100 µM.

For the compound `CN(C)C(=O)c1cc2cc(C3=CCCN(C(=O)CCn4ccnn4)C3)cc(CN3CC(N)C3)c2o1` [Example I-166], the half-maximal inhibitory concentration (IC50) is greater than 100 µM.

For the compound `CC(=O)N1Cc2ccccc2CC1C(=O)N1CCC=C(c2ccc3oc(C(=O)N(C)C)cc3c2)C1` (centres unmarked) [Example I-182], the 50% inhibitory concentration (IC50) was greater than 100 µM.

Turning to `CN(C)C(=O)c1cc2cc(C3=CCCN(C(=O)Cc4ccncn4)C3)ccc2o1` [Example I-270], the IC50 was greater than 100 µM.

Consider `CN(C)C(=O)c1cc2cc(C3=CCCN(C(=O)[C@@H](N)Cn4ccnn4)C3)ccc2o1` (single isomer, unassigned) [Example I-173], for which the 50% inhibitory concentration (IC50) is greater than 100 µM.

Take `COc1ccc(Cn2cc(CC(=O)N3CCC=C(c4ccc5cc(C(=O)N(C)C)[nH]c5c4)C3)cn2)cc1` [Example I-136]: the IC50 is greater than 100 µM.

As to `CN(C)C(=O)c1cc2cc(C3=CCCN(C(=O)CCc4c[nH]c5ccccc45)C3)ccc2o1` [Example I-300], the 50% inhibitory concentration (IC50) was greater than 100 µM.

With `CN(C)C(=O)c1cc2ccc(C3=CCCN(C(=O)C(O)Cc4ccccc4)C3)cc2[nH]1` (centres unmarked) [Example I-51], the IC50 lay in the range of 10 to 100 µM.

Consider `CC(=O)NCc1ccc(CC(=O)N2CCC=C(c3ccc4oc(C(=O)N(C)C)cc4c3)C2)cc1` [Example I-252], for which the IC50 was greater than 100 µM.

Take `Cc1cc(CC(=O)N2CCC=C(c3ccc4cc(C(=O)N(C)C)[nH]c4c3)C2)on1` [Example I-133]: the concentration for half-maximal inhibition (IC50) was greater than 100 µM.

Take `COC(=O)[C@H]1CC[C@H](c2ccc3oc(C(=O)N(C)C)cc3c2)CN1C(=O)CCn1ccnn1` (single isomer, unassigned) [Example I-152]: the half-inhibitory concentration (IC50) is greater than 100 µM.

Consider `CN(C)C(=O)c1cc2ccc(C3=CCCN(C(=O)CCn4nncc4CO)C3)cc2[nH]1` [Example I-13], for which the IC50 was 0.1 to 1 µM.

`CN(C)C(=O)c1cc2ccc(C3=CCCN(C(=O)C4COCC(=O)N4Cc4ccccc4)C3)cc2[nH]1` (centres unmarked) [Example I-93]: the half-maximal inhibitory concentration (IC50) lay within 10 to 100 µM.

Consider `C#Cc1cc(C2=CCCN(C(=O)CCn3ccnn3)C2)cc2cc(C(=O)N(C)C)oc12` [Example I-23], for which the half-inhibitory concentration (IC50) was greater than 100 µM.

In the case of `CN(C)C(=O)c1cc2ccc(C3=CCCN(C(=O)C4CC4F)C3)cc2[nH]1` (centres unmarked) [Example I-26], the 50% inhibitory concentration (IC50) is greater than 100 µM.

As for `CN(C)C(=O)c1cc2ccc(C3=CCCN(C(=O)Cn4ccnn4)C3)cc2[nH]1` [Example I-37], the IC50 was 10 to 100 µM.

Turning to `CN(C)C(=O)c1cc2ccc(C3=CCCN(C(=O)C4CC4c4ccn(C)n4)C3)cc2[nH]1` (centres unmarked) [Example I-321], the IC50 lay within 10 to 100 µM.

For `CN(C)C(=O)c1cc2ccc(C3=CCCN(C(=O)c4c[nH]nc4I)C3)cc2[nH]1` [Example I-34], the IC50 is 10 to 100 µM.

Regarding `CN(C)C(=O)c1cc2cc(C3=CCCN(C(=O)CCn4ccnn4)C3)cc(CN3CCCCC3)c2o1` [Example I-185], the concentration for half-maximal inhibition (IC50) was in the range of 10 to 100 µM.

Regarding `CN(C)C(=O)c1cc2cc(C3=CCCN(C(=O)C4Cc5c(cccc5C5CCNCC5)CN4C=O)C3)ccc2o1` (centres unmarked) [Example I-181], the IC50 was greater than 100 µM.

Regarding `CN(C)C(=O)c1cc2ccc(C3=CCCN(C(=O)CCn4ccnn4)C3)nc2[nH]1` [Example I-196], the IC50 lay within 10 to 100 µM.

Take `CC(=O)N1CCc2ccccc2[C@H]1C(=O)N1CCC=C(c2ccc3oc(C(=O)N(C)C)cc3c2)C1` (single isomer, unassigned) [Example I-176]: the concentration for half-maximal inhibition (IC50) was greater than 100 µM.

Regarding `CN(C)C(=O)c1cc2cc(C3=CCCN(C(=O)CCn4ccnn4)C3)cc(CN3CCNCC3)c2o1` [Example I-167], the half-maximal inhibitory concentration (IC50) is greater than 100 µM.

For the compound `CN(C)C(=O)c1cc2cc(C3=CCCN(C(=O)Cc4cccnc4)C3)ccc2o1` [Example I-275], the IC50 is greater than 100 µM.

Regarding `CN(C)C(=O)c1cc2cc(C3CCC(CO)N(C(=O)CCn4ccnn4)C3)ccc2o1` (centres unmarked) [Example I-154], the concentration for half-maximal inhibition (IC50) is greater than 100 µM.

For the compound `CN(C)C(=O)c1cc2cc([C@H]3CN(C(=O)CCn4ccnn4)CC[C@@H]3O)ccc2o1` (single isomer, unassigned) [Example I-210], the 50% inhibitory concentration (IC50) was greater than 100 µM.

With `CN(C)C(=O)c1cc2cc(C3=CCCN(C(=O)CCc4ncccn4)C3)ccc2o1` [Example I-231], the 50% inhibitory concentration (IC50) is greater than 100 µM.

For the compound `CN(C)C(=O)c1cc2ccc(C3=CCCN(C(=O)c4ccccc4C(=O)c4ccc(F)cc4)C3)cc2[nH]1` [Example I-108], the IC50 is greater than 100 µM.

Turning to `CN(C)C(=O)c1cc2ccc(C3=CCCN(C(=O)C4ON=C(c5ccccc5)O4)C3)cc2[nH]1` (centres unmarked) [Example I-71], the IC50 is 10 to 100 µM.

For the compound `Cc1cccc(C)c1N1CC(C(=O)N2CCC=C(c3ccc4cc(C(=O)N(C)C)[nH]c4c3)C2)CC1=O` (centres unmarked) [Example I-97], the IC50 lay within 10 to 100 µM.

Regarding `CC(=O)N1Cc2ccccc2CC1C(=O)N1CCC=C(c2ccc3oc(C(=O)N(C)C)cc3c2)C1` (centres unmarked) [Example I-170], the IC50 is greater than 100 µM.

For the compound `CN(C)C(=O)c1nc2cc(C3=CCCN(C(=O)CCc4ccccn4)C3)ccc2[nH]1` [Example I-199], the IC50 is greater than 100 µM.

Regarding `CC(=O)NC(Cn1ccnn1)C(=O)N1CCC=C(c2ccc3oc(C(=O)N(C)C)cc3c2)C1` (centres unmarked) [Example I-179], the IC50 was greater than 100 µM.

As to `CN(C)C(=O)c1cc2cc(C3CCCN(C(=O)CCn4ccnn4)C3)ccc2o1` (centres unmarked) [Example I-305], the IC50 was greater than 100 µM.

In the case of `CN(C)C(=O)c1cc2ccc(C3=CCCN(C(=O)C4CCC4C(=O)O)C3)cc2[nH]1` (centres unmarked) [Example I-39], the IC50 was 10 to 100 µM.

On to `CN(C)C(=O)c1cc2ccc(C3=CCCN(C(=O)CCc4ccccn4)C3)cc2[nH]1` [Example I-212], for which the IC50 was 10 to 100 µM.

On to `CN(C)C(=O)c1cc2cc(C3=CCCN(C(=O)Cc4coc5ccccc45)C3)ccc2o1` [Example I-271], for which the IC50 was greater than 100 µM.

Take `CN(C)C(=O)c1cc2cc(C3=CCCN(C(=O)C4Cc5ccccc5CN4C=O)C3)ccc2[nH]1` (centres unmarked) [Example I-201]: the 50% inhibitory concentration (IC50) was greater than 100 µM.

`CN(C)C(=O)c1cc2cc(C3=CCCN(C(=O)CCn4ccnc4)C3)ccc2o1` [Example I-310]: the half-inhibitory concentration (IC50) is greater than 100 µM.

Consider `CNc1ccc(-c2cc(C3=CCCN(C(=O)CCn4ccnn4)C3)cc3cc(C(=O)N(C)C)oc23)cc1` [Example I-204], for which the 50% inhibitory concentration (IC50) was greater than 100 µM.

In the case of `CN(C)C(=O)c1cc2cc(C3=CCCN(C(=O)CCn4ccnn4)C3)ncc2[nH]1` [Example I-224], the IC50 lay in the range of 10 to 100 µM.

As to `CN(C)C(=O)c1cc2ccc(C3=CCCN(C(=O)C4(c5ccc(C(F)(F)F)cc5)CC4)C3)cc2[nH]1` [Example I-84], the IC50 was greater than 100 µM.

In the case of `Cc1nocc1C(=O)N1CCC=C(c2ccc3cc(C(=O)N(C)C)[nH]c3c2)C1` [Example I-35], the IC50 is 10 to 100 µM.

Consider `CN(C)C(=O)c1cc2cc(C3=CCCN(C(=O)CCc4nc5ccccc5[nH]4)C3)ccc2o1` [Example I-267], for which the IC50 was greater than 100 µM.

For `CN(C)C(=O)c1cc2cc(C3=CCCN(C(=O)CCc4cn5ccccc5n4)C3)ccc2o1` [Example I-251], the 50% inhibitory concentration (IC50) was greater than 100 µM.

For the compound `CN(C)C(=O)c1nc2ccc(C3=CCCN(C(=O)CCn4ccnn4)C3)cc2s1` [Example I-227], the IC50 is 10 to 100 µM.

In the case of `CN(C)C(=O)c1cc2ccc(C3=CCCN(C(=O)Cc4cccc(OCc5ccccc5)c4)C3)cc2[nH]1` [Example I-107], the IC50 lay in the range of 0.1 to 1 µM.

Consider `CN(C)C(=O)c1cc2cc(C3=CCCN(C(=O)CCn4ccnn4)C3)cc(C3CCNCC3)c2o1` [Example I-215], for which the 50% inhibitory concentration (IC50) lay within 10 to 100 µM.

For `CN(C)C(=O)c1cc2ccc(C3=CCCN(C(=O)[C@@H](Cn4ccnn4)c4cccc(O)c4)C3)cc2[nH]1` [Example I-122], the IC50 was greater than 100 µM.

In the case of `CNC(=O)c1cc2cc(C3=CCCN(C(=O)CCn4ccnn4)C3)ccc2o1` [Example I-236], the 50% inhibitory concentration (IC50) was greater than 100 µM.

Regarding `CN(C)C(=O)c1cc2cc(C3=CCCN(C(=O)[C@H](N)Cn4ccnn4)C3)ccc2o1` (single isomer, unassigned) [Example I-174], the concentration for half-maximal inhibition (IC50) is greater than 100 µM.

In the case of `Cc1cn(CCC(=O)N2CCC=C(c3ccc4cc(C(=O)N(C)C)[nH]c4c3)C2)nn1` [Example I-319], the IC50 is greater than 100 µM.

Regarding `CN(C)C(=O)c1cc2cc(C3=CCCN(C(=O)CCc4nccc5ccccc45)C3)ccc2o1` [Example I-206], the half-inhibitory concentration (IC50) is greater than 100 µM.

Consider `CN(C)C(=O)c1cc2ccc(C3=CCCN(C(=O)c4ccccc4-c4ccccc4C(=O)O)C3)cc2[nH]1` [Example I-105], for which the 50% inhibitory concentration (IC50) was 10 to 100 µM.

In the case of `CN(C)C(=O)c1cc2cc(C3=CCCN(C(=O)Cc4cncnc4)C3)ccc2o1` [Example I-293], the half-inhibitory concentration (IC50) was greater than 100 µM.

Regarding `CN(C)C(=O)c1cc2cc(C3=CCCN(C(=O)Cc4ccc5nccnc5c4)C3)ccc2o1` [Example I-297], the IC50 is greater than 100 µM.

Take `CNc1ccc(-c2cc(C3=CCCN(C(=O)CCn4ccnn4)C3)cc3[nH]c(C(=O)N(C)C)cc23)cc1` [Example I-113]: the concentration for half-maximal inhibition (IC50) was less than 0.1 µM.

Consider `C[C@@H](Cn1ccnn1)C(=O)N1CCC=C(c2ccc3oc(C(=O)N(C)C)cc3c2)C1` (single isomer, unassigned) [Example I-229], for which the concentration for half-maximal inhibition (IC50) was greater than 100 µM.

On to `CN(C)C(=O)c1cc2ccc(C3=CCCN(C(=O)CCS(=O)(=O)c4ccccc4)C3)cc2[nH]1` [Example I-66], for which the IC50 lay within 1 to 10 µM.
